Where two headings read alike, the source gives them in different places.
Experiments:
[1] = Metabolic stability in liver microsomes; assay type: in vitro ADME, human; settings: human, human liver microsomes; 0.5 µM test substance, 0.5 mg/mL microsomes, NADPH and UDPGA, 37° C.; read-out: T½(min), stability in human liver microsomes
Description: Liver microsomes (purchased from Reed Liver Disease Research (Shanghai) Co., Ltd., product: human liver microsomes (NJT)); NADPH (purchased from Roche, Lot: 40939); UDPGA; the compounds of the present invention (test substances).
• (1) A mixed working solution of testosterone (0.5 µM) and 7-hydroxycoumarin (0.5 µM) was prepared. • (2) A mixed solution of NADPH (1 mM) and UDPGA (1 mM) was prepared, and prewarmed at 37° C. in a water bath shaker before use. • (3) Liver microsomes were thawed and diluted with a buffer. • (4) A preparation of a test substance (0.5 µM) and a solution of liver microsomes (0.5 mg/mL) were added to each well of an incubation plate. • (5) Three experimental groups were set and samples were added. Test group: the test substance was incubated with liver microsomes for 0 min, 30 min, 60 min, and 120 min in the presence of the coenzyme NADPH and UDPGA; Positive control group: testosterone (0.5 µM) and 7-hydroxycoumarin (0.5 µM) were incubated with microsomes for 0 min and 120 min in the presence of the coenzyme NADPH and UDPGA; Negative control group: the test substance was incubated with microsomes for 0 and 120 min without any coenzyme. • (6) All samples were incubated at 37° C., and pre-cooled methanol was added at each termination time (0, 15, 30, 45, 60 min, 120 min) to terminate the reaction, and the time was recorded. • (7) All samples were mixed well and centrifuged at 4000 rpm for 10 min. The supernatant was taken and measured by LC-MS/MS for the amount of the test substance remaining in the samples. Data analysis was carried out as follows: T½=0.693 /k, Clint = (0.693/T½) × (1 /(microsomal protein) × Scaling Factors), Note: k is the slope of the logarithm of the remaining amounts of compound versus time.

[2] = Pharmacokinetic assay in ICR mice (i.v. and p.o.); assay type: in vivo; settings: mouse, plasma, male ICR mice; for half-life: read-out: T½ (converted); for bioavailability: po 10 mg/kg vs iv 1 mg/kg
Summary of the method: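 Fasted male ICR mice (18-22 g) dosed at 1 mg/kg i.v. or 10 mg/kg p.o. in 5% DMSO/95% 30% HP-β-CD, three mice per time point. Submandibular plasma sampled up to 24 h, assayed by LC/MS/MS.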

TTK kinase = target: T1, TTK kinase (Homo sapiens, UniProt P33981); experiment: TTK kinase activity assay (ADP-Glo); assay type: biochemical; settings: initial concentration 1000 nM, 1:3, 10 dilutions; read-out: IC50 (nM), TTK kinase inhibiting activity
T1 construct: purchased Invitrogen PV3792
T1 sequence (P33981 1-857): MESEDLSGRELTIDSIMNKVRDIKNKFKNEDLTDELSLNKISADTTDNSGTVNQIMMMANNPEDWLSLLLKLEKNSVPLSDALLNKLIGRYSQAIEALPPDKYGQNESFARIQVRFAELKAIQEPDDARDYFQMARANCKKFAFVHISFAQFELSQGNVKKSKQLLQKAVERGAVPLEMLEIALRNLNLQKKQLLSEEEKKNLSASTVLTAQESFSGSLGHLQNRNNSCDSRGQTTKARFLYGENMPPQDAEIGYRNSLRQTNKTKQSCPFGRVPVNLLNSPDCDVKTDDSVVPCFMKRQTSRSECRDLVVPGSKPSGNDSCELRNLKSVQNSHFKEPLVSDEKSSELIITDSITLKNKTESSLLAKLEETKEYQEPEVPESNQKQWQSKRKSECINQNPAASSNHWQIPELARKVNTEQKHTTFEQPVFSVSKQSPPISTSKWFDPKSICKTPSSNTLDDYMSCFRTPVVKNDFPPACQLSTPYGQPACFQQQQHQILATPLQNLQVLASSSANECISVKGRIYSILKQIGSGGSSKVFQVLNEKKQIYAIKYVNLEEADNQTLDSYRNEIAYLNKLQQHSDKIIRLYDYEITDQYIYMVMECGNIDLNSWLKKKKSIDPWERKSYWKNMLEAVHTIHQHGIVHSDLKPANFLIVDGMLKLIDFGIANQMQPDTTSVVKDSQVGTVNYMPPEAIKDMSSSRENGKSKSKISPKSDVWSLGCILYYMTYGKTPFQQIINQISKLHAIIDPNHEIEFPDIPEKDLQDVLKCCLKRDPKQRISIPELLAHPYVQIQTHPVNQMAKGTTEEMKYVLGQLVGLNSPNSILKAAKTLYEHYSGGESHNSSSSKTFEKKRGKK
Description: TTK kinase was purchased from Invitrogen, Cat.#: PV3792.
• (1) 1×buffer was prepared by diluting 5×buffer into 1×buffer with ddH2O, and adding 0.05 mM DTT. • (2) The compounds of the present invention were prepared at an initial concentration of 1000 nM, and diluted by 1:3 to obtain 10 serial dilutions. • (3) The diluted compounds of the present invention were added to a 384-well plate (purchased from Greiner, product number 784075) by an Echo 550 pipetting workstation, and centrifuged at 1000 g for 1 min. • (3) A 2×TTK enzyme solution was prepared with the 1×buffer. Then, 2.5 µL of the 2× enzyme solution was added to each well, centrifuged at 1000 g for 30 s, and left at room temperature for 10 min. • (4) A 2×MBP substrate/ATP mixture was prepared with the 1×buffer.

DNA-PK kinase = target: T2, DNA-PK kinase (Homo sapiens, UniProt P78527); experiment: Inhibition assay of DNA-PK kinase (Promega kit, ADP-Glo chemiluminescence); assay type: biochemical; settings: 50 µM ATP, 37° C., 60 min; read-out: IC50 (nM), inhibitory activity on DNA-PK kinase
T2 construct: purchased Promega V4107
Summary of the method: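 Compounds incubated with DNA-PK at 37° C for 60 min; reaction stopped with ADP-Glo reagent (40 min, RT), then kinase detection reagent (30 min, RT). ADP formed read by luminescence against an ADP standard curve.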

| SMILES | half-life at 0.5 µM [1] [min] | AUC ([2]; iv, 1 mg/kg) [ng·h/mL] | half-life ([2]; iv, 1 mg/kg) [h] | bioavailability [2] [%] | AUC ([2]; po, 10 mg/kg) [ng·h/mL] | Cmax ([2]; po, 10 mg/kg) [ng/mL] | half-life ([2]; po, 10 mg/kg) [h] | IC50 (TTK kinase) [nM] | IC50 (DNA-PK kinase) [nM] |
| --- | --- | --- | --- | --- | --- | --- | --- | --- | --- |
| Cc1cc(C(N)=O)ccc1Nc1ncc2c(n1)n(C1CCOCC1)c(=O)n2C [Compound 2, 3-Methyl-4-((7-methyl-8-oxo-9-(tetrahydro-2H-pyran-4-yl)-8,9-dihydro-7H-purin-2-yl)amino)benzamide] | > 120 | 265 | 0.87 | 38.2 | 1040 | 449 | 1.84 | 275 | – |
| Cc1cc(C#N)ccc1Nc1ncc2c(n1)n(C1CCOCC1)c(=O)n2C [Compound 5, 3-Methyl-4-((7-methyl-8-oxo-9-(tetrahydro-2H-pyran-4-yl)-8,9-dihydro-7H-purin-2-yl)amino)benzonitrile] | > 120 | 234 | 0.333 | 99.4 | 2270 | 835 | 3.21 | 1720 | – |
| Cc1cc(C(N)=O)ncc1Nc1ncc2c(n1)n(C1CCOCC1)c(=O)n2C [Compound 18, 4-Methyl-5-((7-methyl-8-oxo-9-(tetrahydro-2H-pyran-4-yl)-8,9-dihydro-7H-purin-2-yl)amino)picolinamide] | > 120 | 171 | 0.771 | 78.4 | 1360 | 312 | 3.06 | 387 | 2.1 |
| Cc1cc(C(N)=O)c(F)cc1Nc1ncc2c(n1)n(C1CCOCC1)c(=O)n2C [Compound 24, 2-Fluoro-5-methyl-4-((7-methyl-8-oxo-9-(tetrahydro-2H-pyran-4-yl)-8,9-dihydro-7H-purin-2-yl)amino)benzamide] | > 120 | 466 | 0.95 | 135 | 6280 | 2500 | 3.73 | 4220 | 0.56 |
| CNC(=O)c1ccc(Nc2ncc3c(n2)n(C2CCOCC2)c(=O)n3C)c(C)c1 [Compound 27, N,3-Dimethyl-4-((7-methyl-8-oxo-9-(tetrahydro-2H-pyran-4-yl)-8,9-dihydro-7H-purin-2-yl)amino)benzamide] | > 120 | 679 | 1.48 | 213 | 14600 | 5450 | 2.17 | 428 | 4.36 |

— patent US20230165867A1 (CHENGDU BAIYU PHARMACEUTICAL CO., LTD., priority 2020, published 2023)
